Experimental data as given in the CheMixHub viscosity set.

Experiment: xn = mol fraction of the nth substance listed

COCCO + COC(=O)OC
298.15 K, 101.33 kPa
Conditions | viscosity [mPa·s]
x1 = 0.0114 | 0.593
x1 = 0.0258 | 0.594
x1 = 0.0442 | 0.598
x1 = 0.0637 | 0.6
x1 = 0.0769 | 0.603
x1 = 0.0975 | 0.608
x1 = 0.1462 | 0.624
x1 = 0.2295 | 0.658
x1 = 0.2503 | 0.669
x1 = 0.2778 | 0.681
x1 = 0.3223 | 0.704
x1 = 0.34 | 0.713
x1 = 0.4034 | 0.758
x1 = 0.4719 | 0.81
x1 = 0.5173 | 0.848
x1 = 0.5482 | 0.874
x1 = 0.5889 | 0.91
x1 = 0.6404 | 0.96
x1 = 0.7382 | 1.075
x1 = 0.814 | 1.12
x1 = 0.8597 | 1.252
x1 = 0.89 | 1.305
x1 = 0.9189 | 1.355
x1 = 0.9738 | 1.471
x2 = 0.0109 | 1.516

CCCCNCCCC + C1COCCO1
Conditions | viscosity [mPa·s]
303.15 K, 101 kPa, x1 = 0.01068 | 1.065

CCCCNCCCC + CCCCOCCO
viscosity [mPa·s], 100 kPa
Conditions | 298.15 K | 303.15 K | 308.15 K
x2 = 0.0501 | 0.94 | 0.85 | 0.8
x2 = 0.1169 | 1.1 | 1.01 | 0.93
x2 = 0.1502 | 1.19 | 1.07 | 1
x2 = 0.2006 | 1.34 | 1.17 | 1.08
x2 = 0.3001 | 1.58 | 1.35 | 1.25
x2 = 0.4001 | 1.82 | 1.55 | 1.43
x2 = 0.5 | 2.14 | 1.83 | 1.63
x2 = 0.5999 | 2.42 | 2.12 | 1.84
x2 = 0.6998 | 2.7 | 2.33 | 2.09
x2 = 0.8 | 2.97 | 2.5 | 2.28
x2 = 0.8965 | 3.1 | 2.61 | 2.38
x2 = 0.95 | 2.97 | 2.56 | 2.32

CCOC(=O)C(=O)OCC + C1CCOC1
viscosity [mPa·s], 101 kPa
Conditions | x1 = 0.0955 | x1 = 0.2037 | x1 = 0.3007 | x1 = 0.4056 | x1 = 0.513 | x1 = 0.6056 | x1 = 0.7083 | x1 = 0.7994 | x1 = 0.9082
303.15 K | 0.506 | 0.591 | 0.683 | 0.795 | 0.916 | 1.03 | 1.173 | 1.298 | 1.472
313.15 K | 0.453 | 0.529 | 0.607 | 0.698 | 0.801 | 0.893 | 1.006 | 1.107 | 1.237
323.15 K | 0.414 | 0.479 | 0.544 | 0.619 | 0.701 | 0.782 | 0.872 | 0.954 | 1.057

CCCCNCCCC + CCC(=O)O
viscosity [mPa·s], 101.33 kPa
Conditions | 293.15 K | 293.5 K | 298.15 K | 303.15 K | 308.15 K | 313.15 K | 318.15 K | 323.15 K
x2 = 0.2 | – | 2.45 | 2.21 | 2.05 | 1.87 | 1.69 | 1.54 | 1.44
x2 = 0.4 | 20.21 | – | 15.81 | 12.24 | 9.94 | 7.97 | 6.42 | 5.61
x2 = 0.5 | – | – | – | 48.04 | 35.66 | 27.31 | 21.32 | 17.49
x2 = 0.6 | 109.3 | – | 80.86 | 64.2 | 49.41 | 39.46 | 31.87 | 25.8
x2 = 0.7 | 125.9 | – | 94.32 | 72.81 | 54.5 | 42.04 | 34.15 | 27.7
x2 = 0.75 | 139.3 | – | 102.5 | 74.31 | 58.19 | 44.26 | 35.31 | 27.67
x2 = 0.8 | 16.74 | – | 14.24 | 11.85 | 10.22 | 8.75 | 7.62 | 6.98

CCCC(C)O (stereo not given) + CC(=O)N(C)C
viscosity [mPa·s], 100 kPa
Conditions | 298.15 K | 313.15 K
x2 = 0.0565 | 2.917 | 1.821
x2 = 0.1029 | 2.592 | 1.693
x2 = 0.2137 | 2.057 | 1.432
x2 = 0.3057 | 1.757 | 1.276
x2 = 0.409 | 1.528 | 1.145
x2 = 0.5031 | 1.387 | 1.053
x2 = 0.6045 | 1.255 | 0.971
x2 = 0.7015 | 1.158 | 0.904
x2 = 0.7996 | 1.068 | 0.842
x2 = 0.9005 | 0.987 | 0.784
x2 = 0.9581 | 0.943 | –

CCCC(C)O (stereo not given) + C1CCCCC1
303.15 K, 101.33 kPa
Conditions | viscosity [mPa·s]
x1 = 0.1049 | 0.874
x1 = 0.2028 | 0.94
x1 = 0.3035 | 1.03
x1 = 0.4031 | 1.151
x1 = 0.5017 | 1.306
x1 = 0.6043 | 1.534
x1 = 0.6903 | 1.772
x1 = 0.801 | 2.116
x1 = 0.9115 | 2.521

CCCC(C)O (stereo not given) + O
298.15 K, 101 kPa
Conditions | viscosity [mPa·s]
x2 = 0.008 | 3.443
x2 = 0.0721 | 3.234
x2 = 0.0934 | 3.182
x2 = 0.1359 | 3.129
x2 = 0.1655 | 3.111
x2 = 0.1981 | 3.104
x2 = 0.2187 | 3.114
x2 = 0.2403 | 3.119
x2 = 0.255 | 3.125
x2 = 0.2971 | 3.163

CCCCNCCCC + ClC(Cl)(Cl)Cl
298.15 K, 101.3 kPa
Conditions | viscosity [mPa·s]
x1 = 0.0922 | 0.898
x1 = 0.173 | 0.894
x1 = 0.3108 | 0.887
x1 = 0.4089 | 0.881
x1 = 0.5011 | 0.877
x1 = 0.5964 | 0.872
x1 = 0.7077 | 0.864
x1 = 0.7916 | 0.848
x1 = 0.9034 | 0.823

COCCO + CCC(C)O
viscosity [mPa·s]
Conditions | 298.15 K | 303.15 K | 313.15 K
100 kPa, x1 = 0.1007 | 2.54 | – | 1.61
100 kPa, x1 = 0.202 | 2.2 | – | 1.46
100 kPa, x1 = 0.3022 | 1.98 | – | 1.36
100 kPa, x1 = 0.4018 | 1.83 | – | 1.29
100 kPa, x1 = 0.5022 | 1.73 | – | 1.24
100 kPa, x1 = 0.6017 | 1.66 | – | 1.21
100 kPa, x1 = 0.701 | 1.61 | – | 1.19
100 kPa, x1 = 0.8006 | 1.58 | – | 1.18
100 kPa, x1 = 0.9006 | 1.56 | – | 1.18
101.3 kPa, x1 = 0.1228 | – | 2.584 | –
101.3 kPa, x1 = 0.209 | – | 2.261 | –
101.3 kPa, x1 = 0.3377 | – | 1.898 | –
101.3 kPa, x1 = 0.428 | – | 1.714 | –
101.3 kPa, x1 = 0.5977 | – | 1.488 | –
101.3 kPa, x1 = 0.6442 | – | 1.45 | –
101.3 kPa, x1 = 0.7067 | – | 1.411 | –
101.3 kPa, x1 = 0.8447 | – | 1.368 | –
101.3 kPa, x1 = 0.9188 | – | 1.308 | –

CCOC(=O)C(=O)OCC + CCCCCCCCCCO
303.15 K, 101.33 kPa
Conditions | viscosity [mPa·s]
x1 = 0.1042 | 6.782
x1 = 0.1986 | 5.372
x1 = 0.2934 | 4.324
x1 = 0.401 | 3.516
x1 = 0.5111 | 2.851
x1 = 0.5985 | 2.488
x1 = 0.7108 | 2.078
x1 = 0.8081 | 1.837
x1 = 0.8863 | 1.691

CCCCNCCCC + CNC(C)=O
308.15 K, 101 kPa
Conditions | viscosity [mPa·s]
x1 = 0.0121 | 3.267
x2 = 0.0611 | 0.7366
x2 = 0.2864 | 1.116
x2 = 0.4546 | 1.522
x2 = 0.5799 | 1.89
x2 = 0.6904 | 2.25
x2 = 0.7866 | 2.584
x2 = 0.8542 | 2.828
x2 = 0.9262 | 3.06
